Our source for the IC50 values is patent publication US11702422B2, “Imidazopyridazines as modulators of IL-17” (Janssen Pharmaceutica NV, priority 2020, dated 2023).

SMILES strings stand for the structures. A value given as a limit tells only on which side of the number the result lay.

In experiment [1] the test system is IL-17A-induced G-CSF production in human normal keratinocyte (NHK). The experiment is described as follows: NHK Assay: IL-17A-induced G-CSF production in human normal keratinocytes. Type of experiment: cell-based. To be noted: Homo sapiens, Keratinocyte, 24 h, adult normal human keratinocytes, IL-17A 5 ng/mL, simple average if tested more than once. How it is done:
IL-17A acts directly on keratinocytes through binding to dimeric receptor IL-17RA/RC and drives the production of a number of inflammatory mediators known to be elevated in psoriasis lesional tissue. IL-17A small molecule inhibitors that block the IL-17A to interact with IL-17R would inhibit the IL-17A signaling in its targeted cells such as keratinocytes. The compound functional activity is evaluated for its impact on IL-17A-induced G-CSF production in human normal keratinocyte (NHK).
Adult normal human keratinocytes are cultured in keratinocyte growth medium (Lonza) in a flask till reaching ˜ 90% confluence, then cells are transferred to a 384-well plate at density of 3000-4000 cell/well. Recombinant human IL-17A (Gibco PHC9174) is pre-incubated with titrated compound or DMSO for 1 h at rt then added to the cell culture plate. The final concentration of IL-17A is 5 ng/mL and DMSO is 0.2%, in the culture containing 5% FBS. Cells are cultured/treated for 24 h at 37° C. Supernatants are collected and G-CSF production is measured through HTRF technology using Human G-CSF Kit (CisBio). G-CSF concentration was extrapolated from the standard curve and IC50 is determined using GraphPad Prism. Cell viability is also evaluated using CellTiter-Glo kit (Promega) and effect of compound on cell viability is compared to DMSO control.

The target in experiment [2] is IL-17A(FLAG-Tagged): IL-17RA(His-Tagged) (Homo sapiens, UniProt Q16552, K93Q). The experiment is described as follows: IL-17A(FLAG-Tagged): IL-17RA(His-Tagged) Binding Disruption Eu-HTRF Assay. To be noted: IL-17A/IL-17RA binding disruption, simple average if tested more than once. An excerpt:
IL-17A(FLAG-Tagged): IL-17RA(His-Tagged) Binding Disruption Eu-HTRF Assay
An antibody directed against the FLAG tag of IL-17A (SEQ ID NO:1) is labeled with the HTRF donor chromophore (Europium-cryptate). IL-17A is present as a dimer that is “locked into” this quaternary structure due to the formation of loop-spanning […] disulfide bridges. The construct of IL-17RA used in the assay excludes the […] portion of the receptor and is fused to a C-terminal 10×His tag (SEQ ID NO:2). An antibody directed against the His tag of the IL-17RA chimera is labeled with the HTRF acceptor chromophore (“D2”). The fluorescence-resonance energy transfer (FRET) depends on the vicinity of the donor chromophore to the acceptor, and interruption of the binding between the IL-17A and IL-17RA causes the reduction/loss of FRET. Therefore, this assay allows to evaluate the compound effect on the binding IL-17A and IL-17RA by monitoring the fluorescence intensity of donor vs acceptor. The assay is run as described below.
40 nl of 2-fold serial diluted compound solution for total 22 dilution points is added into each well of a 1536-well, white, low-volume, non-binding plate (Greiner #782904), then 2 μl of FLAG tagged IL-17A at 2× final concentration (2.5 nM) in solution of PBS+0.01% Triton-X100 is added to each well. The assay plate is briefly centrifuged then incubated for 1 h at rt. A mixed solution is prepared containing 2×5 nM 10HIS×IL-17RA, 2×2.5 nM Eu-anti-FLAG (CISBIO), 2×5 nM D2-anti-HIS (CISBIO) in PBS+0.01% Triton-X100+200 mM Potassium Fluoride (Sigma 60238) and 2 μl of mix is added to each well of the assay plate. The plate is briefly centrifuged then incubated for 2 h at rt. The HTRF intensities at the wavelength of donor (620 nm) and acceptor (665 nm) are measured using BMG Pherastar. The ratio between intensities at two wavelengths is calculated and plotted against the compound concentration and the data is fitted to a one-site competition model to yield IC50 of the compound.
(In general: Time-resolved FRET reads energy transfer from a long-lived donor to a nearby acceptor.)

UniProt Q16552, sequence (Q16552 with tags, fused parts or gaps K93Q): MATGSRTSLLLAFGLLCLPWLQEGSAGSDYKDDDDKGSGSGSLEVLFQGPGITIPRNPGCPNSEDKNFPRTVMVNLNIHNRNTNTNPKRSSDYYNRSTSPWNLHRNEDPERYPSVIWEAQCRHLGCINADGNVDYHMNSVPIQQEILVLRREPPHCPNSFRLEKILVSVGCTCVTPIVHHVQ

The IC50 is the concentration that gives 50% inhibition. The low end stands for greater potency, the high end for weaker potency. Turning to `Cc1nonc1C(=O)N[C@H](c1cn2ncc([C@H](NC(=O)C[C@H]3CC3(F)F)C3CC3)cc2n1)C1CCC(F)(F)CC1` (relative stereo) [Example 255], the values for the IC50 in experiment [1] and in experiment [2] were 600 nM and 170 nM, respectively.

For the molecule `Cc1nonc1C(=O)N[C@H](c1cn2ncc([C@H](NC(=O)CC3CC3(F)F)C3CC3)cc2n1)C1CCC(F)(F)CC1` (relative stereo) [Example 256], the concentration for half-maximal inhibition (IC50) is 250 nM in experiment [1] and 56 nM in experiment [2].

Regarding `Cc1nonc1C(=O)N[C@H](c1cn2ncc([C@H](NC(=O)[C@H]3CC[C@@H]3F)C3CC3)cc2n1)C1CCC(F)(F)CC1` (relative stereo) [Example 334, N—((S)-(7-((R)-Cyclopropyl((1R*,2S*)-2-fluorocyclobutane-1-carboxamido)methyl)imidazo[1,2-b]pyridazin-2-yl)(4,4-difluorocyclohexyl)methyl)-4-methyl-1,2,5-oxadiazole-3-carboxamide], the half-inhibitory concentration (IC50) in experiment [1] is above 20000 nM; in experiment [2], 4400 nM.

On to `Cc1nonc1C(=O)N[C@H](c1cn2ncc([C@H](NC(=O)[C@@H]3CC[C@H]3F)C3CC3)cc2n1)C1CCC(F)(F)CC1` (relative stereo) [Example 335, N—((S)-(7-((R)-Cyclopropyl((1S*,2R*)-2-fluorocyclobutane-1-carboxamido)methyl)imidazo[1,2-b]pyridazin-2-yl)(4,4-difluorocyclohexyl)methyl)-4-methyl-1,2,5-oxadiazole-3-carboxamide], for which the results for the IC50 in experiment [1] and in experiment [2] were above 20000 nM and 7500 nM, respectively.

With `Cc1nonc1C(=O)N[C@H](c1cn2ncc([C@H](NC(=O)[C@H]3CC[C@H]3F)C3CC3)cc2n1)C1CCC(F)(F)CC1` (relative stereo) [Example 336, N—((S)-(7-((R)-Cyclopropyl((1R*,2R*)-2-fluorocyclobutane-1-carboxamido)methyl)imidazo[1,2-b]pyridazin-2-yl)(4,4-difluorocyclohexyl)methyl)-4-methyl-1,2,5-oxadiazole-3-carboxamide], the results for the concentration for half-maximal inhibition (IC50) in experiment [1] and in experiment [2] were above 20000 nM and 5000 nM, respectively.

As for `Cc1nonc1C(=O)N[C@H](c1cn2ncc([C@H](NC(=O)[C@@H]3CC[C@@H]3F)C3CC3)cc2n1)C1CCC(F)(F)CC1` (relative stereo) [Example 337, N—((S)-(7-((R)-Cyclopropyl((1S*,2S*)-2-fluorocyclobutane-1-carboxamido)methyl)imidazo[1,2-b]pyridazin-2-yl)(4,4-difluorocyclohexyl)methyl)-4-methyl-1,2,5-oxadiazole-3-carboxamide], the IC50 was above 20000 nM in experiment [1] and 3500 nM in experiment [2].

With `Cc1nonc1C(=O)N[C@H](c1cn2ncc([C@H](NC(=O)[C@@]34C[C@@H](F)[C@@H]3C4)C3CC3)cc2n1)C1CCC(F)(F)CC1` (relative stereo) [Example 340, N—((S)-(7-((R)-Cyclopropyl((1S*,3R*,4R*)-3-fluorobicyclo[2.1.0]pentane-1-carboxamido)methyl)imidazo[1,2-b]pyridazin-2-yl)(4,4-difluorocyclohexyl)methyl)-4-methyl-1,2,5-oxadiazole-3-carboxamide], the IC50 is above 20000 nM in experiment [1] and 8600 nM in experiment [2].

`Cc1nonc1C(=O)N[C@H](c1cn2ncc([C@H](NC(=O)[C@@]34C[C@@H]3[C@@H](F)C4)C3CC3)cc2n1)C1CCC(F)(F)CC1` (relative stereo) [Example 341, N—((S)-(7-((R)-Cyclopropyl((1R*,3S*,4S*)-3-fluorobicyclo[2.1.0]pentane-1-carboxamido)methyl)imidazo[1,2-b]pyridazin-2-yl)(4,4-difluorocyclohexyl)methyl)-4-methyl-1,2,5-oxadiazole-3-carboxamide]: the values for the IC50 in experiment [1] and in experiment [2] were above 20000 nM and 4800 nM, respectively.

Take `Cc1nonc1C(=O)N[C@H](c1cn2ncc([C@H](NC(=O)[C@H](F)[C@@H](C)C(F)(F)F)C3CC3)cc2n1)C1CCC(F)(F)CC1` (relative stereo) [Example 352, N—((S)-(7-((R)-Cyclopropyl((2R*,3R*)-2,4,4,4-tetrafluoro-3-methylbutanamido)methyl)imidazo[1,2-b]pyridazin-2-yl)(4,4-difluorocyclohexyl)methyl)-4-methyl-1,2,5-oxadiazole-3-carboxamide]: the concentration for half-maximal inhibition (IC50) in experiment [1] is 190 nM; in experiment [2], 120 nM.

As for `Cc1nonc1C(=O)N[C@H](c1cn2ncc([C@H](NC(=O)[C@H](F)[C@H](C)C(F)(F)F)C3CC3)cc2n1)C1CCC(F)(F)CC1` (relative stereo) [Example 353, N—((S)-(7-((R)-Cyclopropyl((2R*,3S*)-2,4,4,4-tetrafluoro-3-methylbutanamido)methyl)imidazo[1,2-b]pyridazin-2-yl)(4,4-difluorocyclohexyl)methyl)-4-methyl-1,2,5-oxadiazole-3-carboxamide], the IC50 amounted to 970 nM in experiment [1] and 630 nM in experiment [2].

Regarding `Cc1nonc1C(=O)N[C@H](c1cn2ncc([C@H](NC(=O)[C@@H](F)[C@@H](C)C(F)(F)F)C3CC3)cc2n1)C1CCC(F)(F)CC1` (relative stereo) [Example 354, N—((S)-(7-((R)-Cyclopropyl((2S*,3R*)-2,4,4,4-tetrafluoro-3-methylbutanamido)methyl)imidazo[1,2-b]pyridazin-2-yl)(4,4-difluorocyclohexyl)methyl)-4-methyl-1,2,5-oxadiazole-3-carboxamide], the IC50 worked out at 2700 nM in experiment [1] and 730 nM in experiment [2].

As for `Cc1nonc1C(=O)N[C@H](c1cn2ncc([C@H](NC(=O)[C@@H]3CNC[C@H]3C(F)(F)F)C3CC3)cc2n1)C1CCC(F)(F)CC1` (relative stereo) [Example 356, N—((S)-(7-((R)-Cyclopropyl((trans-3S*,4S*)-4-(trifluoromethyl)pyrrolidine-3-carboxamido)methyl)imidazo[1,2-b]pyridazin-2-yl)(4,4-difluorocyclohexyl)methyl)-4-methyl-1,2,5-oxadiazole-3-carboxamide], the IC50 is 7800 nM in experiment [1] and 520 nM in experiment [2].

On to `O=C(CCC(F)(F)F)N[C@@H](c1cnn2cc([C@@H](NC(=O)[C@@H]3C[C@@H]3C(F)F)C3CCC(F)(F)CC3)nc2c1)C1CC1` (relative stereo) [Example 358, (1R*,2S*)—N—((S)-(7-((R*)-Cyclopropyl(4,4,4-trifluorobutanamido)methyl)imidazo[1,2-b]pyridazin-2-yl)(4,4-difluorocyclohexyl)methyl)-2-(difluoromethyl)cyclopropane-1-carboxamide], for which the IC50 came to 2100 nM in experiment [1] and 450 nM in experiment [2].

For `O=C(CCC(F)(F)F)N[C@@H](c1cnn2cc([C@@H](NC(=O)[C@H]3C[C@H]3C(F)F)C3CCC(F)(F)CC3)nc2c1)C1CC1` (relative stereo) [Example 359, (1S*,2R*)—N—((S)-(7-((R*)-Cyclopropyl(4,4,4-trifluorobutanamido)methyl)imidazo[1,2-b]pyridazin-2-yl)(4,4-difluorocyclohexyl)methyl)-2-(difluoromethyl)cyclopropane-1-carboxamide], the concentration for half-maximal inhibition (IC50) in experiment [1] is 10000 nM; in experiment [2] it was 1100 nM.
